Source: patent publication US12180187B2, “1-phenyl-5-azinylpyrazolyl-3-oxyalkyl acids and their use for controlling unwanted plant growth” (BAYER AKTIENGESELLSCHAFT, priority 2019, dated 2024)

What was measured:
[1] = system: AMARE; assay: Post-emergence action against AMARE, 1.28 kg/ha; type: in vivo, Amaranthus retroflexus; conditions: dosage 1280 g/ha, visual rating about 3 weeks after treatment vs untreated controls (100% = plants died)
In short: (§1)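 Greenhouse-grown weeds (sandy loam, twin-sown pots) were treated 2–3 weeks post-sowing at one leaf. The spray was an aqueous WP/EC preparation plus 0.5% additive, applied at 600 L/ha. Scoring was visual at ~3 weeks, 0–100% versus untreated controls.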

[2] = system: MATIN; assay: Pre-emergence action against MATIN, 1280 g/ha; type: in vivo, Tripleurospermum inodorum (Matricaria inodora); conditions: scored visually after about 3 weeks vs untreated controls (100% = plants have died)
In short: (§2)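 Each pot was doubly sown in sandy loam and covered, then its soil surface was treated with compound suspension or emulsion containing 0.5% additive at 600 L/ha water. Plants grew in a greenhouse; effect was rated visually as percentages versus controls after about 3 weeks.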

[3] = system: POAAN; assay: Post-emergence action against POAAN, 1.28 kg/ha; type: in vivo, Poa annua; conditions: dosage 1280 g/ha, visual rating about 3 weeks after treatment vs untreated controls
In short: as §1

[4] = system: ALOMY; assay: Post-emergence action against ALOMY, 1.28 kg/ha; type: in vivo, Alopecurus myosuroides; conditions: dosage 1280 g/ha, visual rating about 3 weeks after treatment vs untreated controls
In short: as §1

[5] = system: SETVI; assay: Pre-emergence action against SETVI, 1280 g/ha; type: in vivo, Setaria viridis; conditions: visual scoring after about 3 weeks vs untreated controls, 100% = plants have died, 0% = like control plants
In short: as §2

[6] = system: ALOMY; assay: Pre-emergence action against ALOMY, 1280 g/ha; type: in vivo, Alopecurus myosuroides; conditions: visual scoring after about 3 weeks vs untreated controls, 100% = plants have died, 0% = like control plants
In short: as §2

[7] = system: KCHSC; assay: Post-emergence action against KCHSC, 1.28 kg/ha; type: in vivo, Bassia scoparia; conditions: dosage 1280 g/ha, visual rating about 3 weeks after treatment vs untreated controls (100% = plants died)
In short: as §1

[8] = system: LOLRI; assay: Pre-emergence action against LOLRI, 1280 g/ha; type: in vivo, Lolium rigidum; conditions: visual scoring after about 3 weeks vs untreated controls, 100% = plants have died, 0% = like control plants
In short: as §2

[9] = system: KCHSC; assay: Pre-emergence action against KCHSC, 1280 g/ha; type: in vivo, Bassia scoparia; conditions: scored visually after about 3 weeks vs untreated controls (100% = plants have died)
Description: 1. Pre-Emergence Herbicidal Effect and Crop Plant Compatibility a) Seeds of mono- and dicotyledonous weed plants are placed in plastic pots in sandy loam soil (doubly sown with one species each of mono- or dicotyledonous weed plants per pot) and covered with soil. The compounds of the invention, formulated in the form of wettable powders (WP) or as emulsion concentrates (EC), are then applied onto the surface of the covering soil as aqueous suspension or emulsion with addition of 0.5% additive at a water application rate equivalent to 600 litres per hectare. After the treatment, the pots are placed in a greenhouse and kept under good growth conditions for the trial plants. After about 3 weeks, the effect of the preparations is scored visually in comparison with untreated controls as percentages. For example, 100% activity=the plants have died, 0% activity=like control plants. 1. Pre-Emergence Effectiveness Tables 1 to 12 below show the effects of selected compounds of the general formula (I) according to Tables 1 and 2 on various harmful plants and at an application rate corresponding to 1280 g/ha, which were obtained by the experimental procedure mentioned above.

[10] = system: VERPE; assay: Post-emergence action against VERPE, 1.28 kg/ha; type: in vivo, Veronica persica; conditions: dosage 1280 g/ha, visual rating about 3 weeks after treatment vs untreated controls (100% = plants died)
In short: as §1

[11] = system: POAAN; assay: Pre-emergence action against POAAN, 1280 g/ha; type: in vivo, Poa annua; conditions: visual scoring after about 3 weeks vs untreated controls, 100% = plants have died, 0% = like control plants
In short: as §2

[12] = system: MATIN; assay: Post-emergence action against MATIN, 1.28 kg/ha; type: in vivo, Tripleurospermum inodorum (Matricaria inodora); conditions: dosage 1280 g/ha, visual rating about 3 weeks after treatment vs untreated controls (100% = plants died)
In short: as §1

[13] = system: ECHCG; assay: Pre-emergence action against ECHCG, 1280 g/ha; type: in vivo, Echinochloa crus-galli; conditions: visual scoring after about 3 weeks vs untreated controls, 100% = plants have died, 0% = like control plants
In short: as §2

[14] = system: DIGSA; assay: Post-emergence action against DIGSA, 1.28 kg/ha; type: in vivo, Digitaria sanguinalis; conditions: dosage 1280 g/ha, visual rating about 3 weeks after treatment vs untreated controls
In short: as §1

[15] = system: STEME; assay: Pre-emergence action against STEME, 1280 g/ha; type: in vivo, Stellaria media; conditions: scored visually after about 3 weeks vs untreated controls (100% = plants have died)
In short: as §2

[16] = system: STEME; assay: Post-emergence action against STEME, 1.28 kg/ha; type: in vivo, Stellaria media; conditions: dosage 1280 g/ha, visual rating about 3 weeks after treatment vs untreated controls (100% = plants died)
In short: as §1

[17] = system: LOLRI; assay: Post-emergence action against LOLRI, 1.28 kg/ha; type: in vivo, Lolium rigidum; conditions: dosage 1280 g/ha, visual rating about 3 weeks after treatment vs untreated controls
In short: as §1

[18] = system: ABUTH; assay: Post-emergence action against ABUTH, 1.28 kg/ha; type: in vivo, Abutilon theophrasti; conditions: dosage 1280 g/ha, visual rating about 3 weeks after treatment vs untreated controls (100% = plants died)
In short: as §1

[19] = system: ECHCG; assay: Post-emergence action against ECHCG, 1.28 kg/ha; type: in vivo, Echinochloa crus-galli; conditions: dosage 1280 g/ha, visual rating about 3 weeks after treatment vs untreated controls
In short: as §1

[20] = system: SETVI; assay: Post-emergence action against SETVI, 1.28 kg/ha; type: in vivo, Setaria viridis; conditions: dosage 1280 g/ha, visual rating about 3 weeks after treatment vs untreated controls
In short: as §1

[21] = system: DIGSA; assay: Pre-emergence action against DIGSA, 1280 g/ha; type: in vivo, Digitaria sanguinalis; conditions: visual scoring after about 3 weeks vs untreated controls, 100% = plants have died, 0% = like control plants
In short: as §2

[22] = system: VERPE; assay: Pre-emergence action against VERPE, 1280 g/ha; type: in vivo, Veronica persica; conditions: scored visually after about 3 weeks vs untreated controls (100% = plants have died)
In short: as §2

[23] = system: AMARE; assay: Pre-emergence action against AMARE, 1280 g/ha; type: in vivo, Amaranthus retroflexus; conditions: scored visually after about 3 weeks vs untreated controls (100% = plants have died)
In short: as §2

| SMILES | Post-emergence action against AMARE [1] [%] | Pre-emergence action against MATIN [2] [%] | Post-emergence action against POAAN [3] [%] | Post-emergence action against ALOMY [4] [%] | Pre-emergence action against SETVI [5] [%] | Post-emergence action against KCHSC [7] [%] | Pre-emergence action against LOLRI [8] [%] | Pre-emergence action against KCHSC [9] [%] | Post-emergence action against VERPE [10] [%] | Pre-emergence action against POAAN [11] [%] | Post-emergence action against MATIN [12] [%] | Pre-emergence action against ECHCG [13] [%] | Post-emergence action against DIGSA [14] [%] | Pre-emergence action against STEME [15] [%] | Post-emergence action against STEME [16] [%] | Post-emergence action against LOLRI [17] [%] | Post-emergence action against ECHCG [19] [%] | Pre-emergence action against DIGSA [21] [%] | Pre-emergence action against VERPE [22] [%] | Pre-emergence action against AMARE [23] [%] | other results |
| --- | --- | --- | --- | --- | --- | --- | --- | --- | --- | --- | --- | --- | --- | --- | --- | --- | --- | --- | --- | --- | --- |
| CONC(=O)COc1nn(-c2ccc(F)cc2F)c(-c2ccc(F)nc2)c1Br [Example X-024] | 100 | 100 | 100 | 100 | 100 | 90 | 100 | 100 | 100 | 100 | 90 | 100 | 100 | 100 | 100 | 100 | 100 | 100 | 100 | 100 | Pre-emergence action against ALOMY [6]: 100%; Post-emergence action against ABUTH [18]: 100%; Post-emergence action against SETVI [20]: 90% |
| COC(=O)[C@@H](C)Oc1nn(-c2ccccc2F)c(-c2cncnc2)c1[N+](=O)[O-] [VI-006] |  | 100 | 100 |  | 100 | 90 | 100 | 100 | 90 | 100 | 100 | 100 | 90 | 90 | 100 | 100 |  | 100 | 100 | 90 |  |
| CCOC(=O)COc1nn(-c2ccc(F)cc2)c(-c2ccc(F)nc2)c1C(F)(F)F [VII-059] | 100 | 90 | 100 | 100 | 100 | 100 | 100 | 100 | 90 | 100 | 100 | 100 | 100 | 100 | 100 | 100 | 100 | 100 | 100 | 100 | Pre-emergence action against ALOMY [6]: 100% |
| CCOC(=O)COc1nn(-c2ccc(F)cc2)c(-c2ccc(F)nc2)c1Br [VII-065] | 90 | 90 | 100 | 100 | 100 | 100 | 100 | 100 | 90 | 100 | 100 | 100 | 100 | 100 | 100 | 90 | 100 | 100 | 100 | 100 | Pre-emergence action against ALOMY [6]: 100%; Post-emergence action against ABUTH [18]: 90%; Post-emergence action against SETVI [20]: 90% |
| O=C(O)COc1nn(-c2ccc(F)cc2)c(-c2ccc(F)nc2)c1Br [VII-095] | 90 | 90 | 100 | 100 | 100 | 100 | 100 | 100 | 90 | 100 | 100 | 100 | 100 | 100 | 90 | 100 | 100 | 100 | 100 | 100 | Pre-emergence action against ALOMY [6]: 100%; Post-emergence action against SETVI [20]: 100% |
| O=C(O)COc1nn(-c2ccc(F)cc2F)c(-c2ccc(F)nc2)c1Br [VII-100] | 100 | 100 | 100 | 100 | 90 | 90 | 100 | 100 | 100 | 100 | 90 |  | 90 | 100 | 100 | 100 | 90 | 90 | 100 | 100 | Post-emergence action against ABUTH [18]: 90%; Post-emergence action against SETVI [20]: 100% |
| CCOC(=O)COc1nn(-c2ccc(F)cc2F)c(-c2ccc(F)nc2)c1Br [VII-101] | 90 | 100 | 100 | 100 | 100 | 90 | 100 | 100 | 100 | 100 | 100 | 90 | 100 | 100 | 100 | 100 | 100 | 100 | 100 | 100 | Pre-emergence action against ALOMY [6]: 100%; Post-emergence action against ABUTH [18]: 90%; Post-emergence action against SETVI [20]: 100% |
